Measurements reported in patent US20160090351A1, “INHIBITORS OF DEUBIQUITINATING PROTEASES” (BRANDEIS UNIVERSITY, priority 2013, published 2016).
Read-outs that look alike come from different tables or passages of the source.

How the values were obtained:
[1] = test system: MCF7 cells; assay: viability and cell cycle of MCF7 cells (Alamar Blue, FACS); details: Alamar Blue
[2] = test system: DUBs; assay: decomposition of high molecular weight ubiquitinated proteins (HMW-Ub) in lysates of HEK 293T cells expressing HA-Ub; assay type: biochemical, human; details: for stabilization of the HMW-Ub pool: HEK 293T HA-Ub lysates, 37° C.; for DUB inhibitory activity, SAR in words: relative to C4 or parent analog
Description: FIG. 30 depicts data showing that diphenylcarbonates inhibit the decomposition of high molecular weight ubiquitinated proteins (HMW-Ub). Lysates were prepared from HEK 293T cells expressing HA-ubiquitin. Samples were incubated at 37° C. and reactions were quenched by the addition of reducing Laemmli buffer. HMW-Ub was assessed by SDS-PAGE and immunoblotting with anti-HA antibody. A. Representative immunoblots measuring the decomposition of HMW-Ub in lysates treated with either the DMSO vehicle, G5 (10 μM) or C4 (500 μM). B. Plot of the decomposition of HMW-Ub in lysates treated with DMSO and C4 (500 μM) (N=2; error bars denote range). C. Inhibition of HMW-Ub decomposition by diphenylcarbonates. Lysates were treated with diphenylcarbonates (50 μM). “-” denotes no treatment; D, 1% DMSO vehicle; IU1, an USP14-specific inhibitor; Bort, bortezomib, a proteasome inhibitor. D. Representative decomposition of HMW-Ub after 2 h incubation in the presence of varying concentrations of C4. See also FIG. 36. E. Quantitation of D. The values of EC50 reported in FIG. 29B are the average and S.E.M. of at least 3 independent experiments. See also FIG. 37 and FIG. 38.
Cells overexpressing HA-ubiquitin were prepared as above. Pellets were typically stored at −80° C. until required, at which time they were thawed on ice. Cell lysis was performed in lysis buffer using a Dounce homogenizer (10 strokes, with grinding, on ice: typical yield approx. 2-5 mg protein per transfected T75 flask for HEK 293T cells; 1-3 mg protein from a T75 flask for Cos-1). Crude lysate was centrifuged at 17000 g for 10 min at 4° C., after which time the concentration of the lysate was normalized to 1 mg/mL. The lysate was aliquoted into PCR strip tubes (typical volumes 75-50 μL) and compound in DMSO was added to this to give a final concentration of DMSO of 1%. Tubes were briefly centrifuged, overlaid with Chill-out wax (50 μL) and placed in a PCR machine at 37° C. with heated lid set to 37° C. Aliquots (9 μL) were removed at the stated times and immediately quenched in (2× final concentration) reducing (dithiothreitol) loading buffer and frozen (−19° C.) till required. Western blot analysis was carried out using standard methods. Samples were resolved by SDS-PAGE, transferred to PVDF [(0.45 μm) (Towbin buffer, tank apparatus, 90 V 1 hour, then overnight at 30 V, 4° C.)] then blocked in 15% milk in TBS-T HS (100 mM Tris HCl, pH 7.6, 500 mM NaCl, 0.5% […]) for at least 2 hours at RT. Afterward, membrane was washed in TBS-T HS then probed with anti HA-HRP (1:18000) for 1.33 hours at RT. Membrane was washed 3 times in TBS-T HS (15 mins) then once in TBS (15 mins) and exposed to ECL II and visualized using blue biofilm. […] When required, membranes were stripped in 100 mM glycine pH 4, 500 mM NaCl, 1% SDS, 5 mM BME, at 55° C. for 19 mins, then analyzed.
Lysates were prepared from HEK 293T cells expressing N-terminally HA-tagged ubiquitin (HA-Ub) to facilitate the observation of ubiquitinated proteins. In the absence of a DUB inhibitor, the HMW-Ub pool decomposed with a half-life of 34 min (FIG. 30A,B). […] Similar results were obtained in lysates prepared from Cos-1 cells expressing HA-Ub.

[3] = test system: DUBs; assay: A-ring SAR: total ubiquitin pool in HEK293T lysates overexpressing ubiquitin-HA, western blot; assay type: biochemical, human; details: 1.5 h, compounds numbered as in FIG. 3
Description: HEK293T lysates overexpressing ubiquiting-HA were treated with the stated compound for 1.5 h and the total ubiquitin pool was analyzed by western blot (HA). […] Similar data were obtained for Cos-1 lysates.

[4] = test system: HEK 293T cells; assay: accumulation of K48- and K63-linked Ub species in HEK 293T cells; assay type: cell-based, human; details: 50 μM, 2 h
Description: FIG. 32 depicts data showing that diphenyl carbonates inhibit DUBs in HEK 293T cells. A. Viability of HEK 293T cells assessed by the propidium iodide exclusion method: diphenyl carbonate (100 μM), bortezomib (V, 20 μM) and G5 (2 μM). N≧3, mean+/−s.d. B. HEK 293T cells were treated with the stated compounds (50 μM) for 2 h and then assayed for the accumulation of K48-linked Ub species. C. As in A, but K63-linked Ub was assayed. D. HEK 293T cells were treated with C14, C15, C17, C18 (100 μM) or DMSO for 2 hours, then harvested, lysed and treated with HA-Ub-VS. After 30 min, lysates were analyzed by SDS-PAGE and probed for HA, tubulin and actin. An intervening lane was removed for clarity. E. HEK 293T cells expressing Ub-G76V-GFP were treated with diphenyl carbonates (100 μM), bortezomib (20 μM) and G5 (2 μM). […] N>3, Mean+/−s.d. See also FIG. 39. […]

[5] = test system: USP9x, USP19, USP7/8, USP28/15; assay: HA-Ub-VS activity profiling in cell lysates, USPs; assay type: biochemical, human
Description: (§1) HA-ubiquitin vinylsulfone (HA-Ub-VS) irreversibly labels DUBs by modifying the catalytic cysteine residue Inhibition of the DUB prevents HA-Ub-VS labeling and the band is. […] The interaction with UCHL1/3 is reversible.
(§2) Lysate labeling assay on untransfected cells (1.5 mg/mL) was run with the stated concentration of inhibitor (or 1% DMSO control) for between 19-60 mins. After this time HA-Ub-VS (1.5-0.7 μM) was added and incubated for 19 mins. After this time reaction mixture (9 μL) was removed and quenched in 2× (final concentration) reducing loading buffer. For recovery experiments, a lysate of 6 mg/mL was treated with saturating compound C14 (250 μM) and incubated for 40 mins. Afterward, the lysate was diluted to 0.6 mg/mL (final concentration of inhibitor 25 μM) in lysis buffer (final volume 100 μL), then HA-Ub-VS was added. Aliquots (15 μL) were removed at the stated time (5-119 mins) and immediately quenched in 2× (final concentration) reducing loading buffer. For all HA-Ub-VS experiments samples in loading buffer were heated only to 37° C. prior to loading on a gel. This assay is highly susceptible to concentration of lysate and HA-Ub-VS. Cell experiments were carried out as above with some modifications. For Cos-1 and MCF-7 cells, after trypsinization, media with compound was added to give a final concentration of compound equal to that used in the assay. Cell pellets were lysed on an ice/salt bath with a temperature of −5° C. and lysate was centrifuged for only 5 mins.
(§3) HA-Ub-VS is an irreversible inhibitor of DUBs that is widely used in activity profiling. If the DUB inhibitors react to form a thiocarbonylated enzyme as proposed (FIG. 29B), then HA-Ub-VS labeling will be blocked. Treatment of HEK 293T lysates with HA-Ub-VS produced the characteristic pattern of protein bands at 250, 150-100, 45, 38 and 36 kDa, generally ascribed to USP9x (292 kDa), USP19 (146 kDa), USP7/8 (128 and 127 kDa, respectively), USP28/15 (122 and 112 kDa, respectively), UCH-L5 (38 kDa), UCH-L3 (26 kDa) and UCH-L1 (25 kDa) as depicted in FIG. 31.
(§4) The effect of diphenylcarbonates on HA-Ub-VS labeling was assessed to investigate the selectivity of DUB inhibition. Lysates were preincubated with diphenyl carbonates (75 μM), then treated with HA-Ub-VS (FIG. 31A). […] These C17 and C22-sensitive DUBs are most likely USP9x, USP19, USP7/8 and UCHL5, based on molecular weight (FIGS. 31B and 38). The identity of USP7 was confirmed by immunoblotting (FIG. 38F). […] Similar behavior was observed on Cos-1 cell lysates (FIG. 38B).

[6] = test system: UCH-L5, UCH-L3, UCH-L1; assay: HA-Ub-VS activity profiling in cell lysates, UCH-Ls; assay type: biochemical, human
Description: as §1, §2, §3, §4

[7] = biological target: T1, USP9x (Homo sapiens, UniProt Q93008); assay: HA-Ub-VS labeling in K562 cell lysates; assay type: biochemical; details: compound 40 minutes, then HA-Ub-VS (1.5 μM) 20 minutes
T1 construct: endogenous in cells; host or cells: K562 cell lysate
Description: HA-Ub-VS is commonly used to label DUBs in cell lysates. […] A. and B. K562 cell lysates were treated with compound for 40 minutes prior to activity labeling with HA-Ub-VS (1.5 μM) for 20 minutes. Samples were analyzed by SDS-PAGE and immunoblotting with anti-HA antibody. C. […] Values were derived by fitting to the in Prism.

[8] = test system: MCF7 cells
Description: MCF7 cells were dosed every 2 hours with the indicated concentration of C15. After 6 hours, cells were lysed by freeze thaw and then sonicated in 0.5% SDS. […] MCF7 cells were treated under the stated conditions then analyzed for cell cycle. […] G. Cells treated with C17 (25 μM), dosed every 24 hours. H. Cells treated with C17 (50 μM), dosed every 24 hours. […] These cells were left for 72 h (single dose) after which time the total number of viable cells was analyzed using Alamar Blue®. All data are n≧4 showing mean+/−s.e.m. K. MCF7 cells were plated with C17 for 24 hours after which time the total number of viable cells was measured by Alamar Blue®.
All cells were grown at 37° C. in a 5% CO2 humidified atmosphere in DMEM supplemented with 10% heat inactivated FBS, 1× glutamax, and 1× penicillin/streptomycin. […] Proliferation assays were conducted by plating cells at 5% confluence in 96 well plates together with compound or 0.1% DMSO. Cells were allowed to grow for 72 hours (a 24 h dosing regimen was used for carbonate compounds) and then Alamar Blue® was added and number of cells was measured by fluorescence on a microplate reader.

[9] = HEK 293T lysates, 75 μM, 30 minutes preincubation

T1 sequence (Q93008 whole entry): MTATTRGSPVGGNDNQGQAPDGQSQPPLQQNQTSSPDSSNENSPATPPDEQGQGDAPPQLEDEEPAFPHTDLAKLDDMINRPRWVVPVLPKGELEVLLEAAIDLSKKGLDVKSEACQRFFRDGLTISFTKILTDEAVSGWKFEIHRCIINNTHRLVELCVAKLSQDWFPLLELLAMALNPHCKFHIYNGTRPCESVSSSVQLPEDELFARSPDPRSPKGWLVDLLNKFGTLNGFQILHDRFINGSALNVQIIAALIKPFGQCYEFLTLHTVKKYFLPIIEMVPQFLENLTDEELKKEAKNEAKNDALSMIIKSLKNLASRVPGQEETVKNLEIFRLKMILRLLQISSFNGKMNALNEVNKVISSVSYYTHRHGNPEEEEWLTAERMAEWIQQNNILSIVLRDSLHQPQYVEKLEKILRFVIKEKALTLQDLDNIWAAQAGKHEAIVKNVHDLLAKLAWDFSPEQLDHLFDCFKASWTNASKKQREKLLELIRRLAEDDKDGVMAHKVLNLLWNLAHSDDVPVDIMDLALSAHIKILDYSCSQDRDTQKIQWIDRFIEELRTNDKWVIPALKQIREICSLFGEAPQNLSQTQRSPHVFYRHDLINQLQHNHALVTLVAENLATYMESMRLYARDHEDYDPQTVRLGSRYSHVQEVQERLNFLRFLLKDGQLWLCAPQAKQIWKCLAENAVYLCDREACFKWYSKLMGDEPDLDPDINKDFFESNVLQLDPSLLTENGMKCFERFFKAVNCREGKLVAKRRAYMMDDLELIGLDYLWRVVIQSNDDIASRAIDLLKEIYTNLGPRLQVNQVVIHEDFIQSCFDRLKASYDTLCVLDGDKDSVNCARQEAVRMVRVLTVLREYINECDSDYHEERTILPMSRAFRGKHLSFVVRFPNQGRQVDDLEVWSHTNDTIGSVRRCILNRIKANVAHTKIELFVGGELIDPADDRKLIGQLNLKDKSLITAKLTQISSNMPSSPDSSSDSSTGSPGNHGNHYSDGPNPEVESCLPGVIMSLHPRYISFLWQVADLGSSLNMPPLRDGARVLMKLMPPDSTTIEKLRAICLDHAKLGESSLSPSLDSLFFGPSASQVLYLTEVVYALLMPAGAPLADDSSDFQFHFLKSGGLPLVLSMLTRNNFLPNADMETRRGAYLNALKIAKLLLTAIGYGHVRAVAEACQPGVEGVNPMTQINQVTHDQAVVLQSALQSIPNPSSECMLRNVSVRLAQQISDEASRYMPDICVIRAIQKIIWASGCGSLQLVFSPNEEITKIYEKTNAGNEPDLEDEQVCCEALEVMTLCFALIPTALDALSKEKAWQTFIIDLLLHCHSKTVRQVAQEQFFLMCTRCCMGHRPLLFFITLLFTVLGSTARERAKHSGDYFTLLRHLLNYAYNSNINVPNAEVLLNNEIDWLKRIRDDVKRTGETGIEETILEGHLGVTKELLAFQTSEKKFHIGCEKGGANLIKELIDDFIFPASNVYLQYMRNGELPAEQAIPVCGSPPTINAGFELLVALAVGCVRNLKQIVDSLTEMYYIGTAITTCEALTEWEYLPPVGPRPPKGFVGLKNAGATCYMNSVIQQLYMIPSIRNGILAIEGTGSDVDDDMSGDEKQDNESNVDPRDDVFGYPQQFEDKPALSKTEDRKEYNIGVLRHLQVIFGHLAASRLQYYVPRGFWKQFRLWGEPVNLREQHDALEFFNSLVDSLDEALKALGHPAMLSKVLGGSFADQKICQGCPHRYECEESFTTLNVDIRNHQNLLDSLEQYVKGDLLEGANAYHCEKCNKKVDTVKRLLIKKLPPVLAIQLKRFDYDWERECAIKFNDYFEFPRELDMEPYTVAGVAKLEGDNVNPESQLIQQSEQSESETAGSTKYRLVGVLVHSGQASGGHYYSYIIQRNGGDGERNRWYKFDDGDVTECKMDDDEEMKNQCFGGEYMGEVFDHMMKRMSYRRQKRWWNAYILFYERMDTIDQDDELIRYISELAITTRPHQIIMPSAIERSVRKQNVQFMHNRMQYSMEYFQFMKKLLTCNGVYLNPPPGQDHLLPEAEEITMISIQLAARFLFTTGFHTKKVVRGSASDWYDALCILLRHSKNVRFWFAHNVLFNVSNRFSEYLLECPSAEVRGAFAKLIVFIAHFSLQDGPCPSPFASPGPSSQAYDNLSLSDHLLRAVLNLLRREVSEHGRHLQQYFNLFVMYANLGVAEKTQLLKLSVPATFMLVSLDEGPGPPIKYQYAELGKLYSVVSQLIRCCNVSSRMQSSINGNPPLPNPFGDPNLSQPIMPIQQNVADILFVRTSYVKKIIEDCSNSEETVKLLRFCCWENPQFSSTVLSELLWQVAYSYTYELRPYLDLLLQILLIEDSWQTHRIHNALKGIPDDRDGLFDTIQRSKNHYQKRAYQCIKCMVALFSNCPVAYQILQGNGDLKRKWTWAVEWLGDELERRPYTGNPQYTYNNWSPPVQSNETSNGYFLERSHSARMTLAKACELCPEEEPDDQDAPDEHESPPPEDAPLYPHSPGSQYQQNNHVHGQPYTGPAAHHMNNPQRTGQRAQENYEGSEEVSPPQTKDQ

With `Oc1ccc2ccccc2c1` [Compound 2-Naphthol, 2-Naphthol] the “cytotoxicity after single dose, 72 h” value [1] was “not cytotoxic”.
With `NCc1ccc(OC(=O)Cc2ccccc2)cc1` [Compound C9] the “stabilization of the HMW-Ub pool” value [2] was “nor the analogous esters (C9 and C10) stabilized HMW-Ub”.
In the case of `CC(C)(C)CNCc1ccc(OC(=O)Oc2ccc3ccccc3c2)cc1.Cl` [compound 11], the “inhibition (total ubiquitin pool)” value [3] is reported as “have some potency”.
`CC(C)(C)CNCc1ccc(OC(=O)Oc2ccc3ccccc3c2)cc1` [Compound C20] was tested, and the “DUB inhibitory activity, SAR in words” value [2] was “inhibitory activity was retained” and the “accumulation of K48-linked HMW-Ub” value [4] was “failed to cause the accumulation of HMW-Ub”.
With `NCc1ccc(CC(=O)Oc2ccccc2)cc1` [Compound C10] the “stabilization of the HMW-Ub pool” value [2] was “nor the analogous esters (C9 and C10) stabilized HMW-Ub”.
With `N=C(N)NCc1ccc(OC(=O)Oc2ccc3ccccc3c2)cc1` [Compound C22] the “HA-Ub-VS labeling of USPs” value [5, 9] was “decreased HA-Ub-VS labeling of several USPs”, the “HA-Ub-VS labeling, dose response” value ([5]; at 12 μM) was “significantly inhibited the labeling of several high molecular weight proteins” and the “HA-Ub-VS labeling of UCHL enzymes” value [6, 9] was “relatively little effect on the UCHL enzymes”. The “inhibition of UCH-L1/3/5, dose response” value ([6]; below 50 μM) was “little inhibition of UCH-L1/3/5 was observed below 50 μM”, the “DUB inhibitory activity, SAR in words” value [2] was “efficacious” and the “accumulation of K48-linked HMW-Ub” value [4] was “failed to cause the accumulation of HMW-Ub”.
`CC(C)(C)OC(=O)NCc1ccc(OC(=O)Oc2ccc(Cl)cc2)cc1` [Compound C23, N-Boc 4-(aminomethyl)phenyl(4-chlorophenyl)carbonate] was tested, and the “DUB inhibitory activity, SAR in words” value [2] was “Inhibitory activity was not recovered”.
With `CC(C)(C)OC(=O)NCc1ccc(NC(=S)Oc2ccc(Cl)cc2)cc1` [TCM28] the EC50 [7] was 45 ± 8 µM.
For `O=C(Oc1ccccc1)Oc1ccc(CNCc2ccc(Cl)cc2)cc1` [Compound C5], the “stabilization of the HMW-Ub pool” value [2] was “inhibited the decomposition of the HMW-Ub pool” and the “DUB inhibitory activity, SAR in words” value [2] was “retained DUB inhibitory activity”.
For `NCc1ccc(NC(=O)Oc2ccccc2)cc1` [Compound C8], the “stabilization of the HMW-Ub pool” value [2] was “Neither the analogous carbamates (C7 and C8, FIG. 30 and FIG. 36), nor the analogous esters (C9 and C10) stabilized HMW-Ub”.
`CC(C)CNCc1ccc(OC(=O)Oc2ccc3ccccc3c2)cc1` [Compound C21] was tested, and the “DUB inhibitory activity, SAR in words” value [2] was “somewhat deleterious”.
For `CC(C)(C)OC(=O)NCc1ccc(OC(=O)Oc2ccc3ccccc3c2)cc1` [Compound C19], the “DUB inhibitory activity, SAR in words” value [2] was “Inhibitory activity was not recovered”.
For `CC(C)(C)OC(=O)NCc1ccc(OC(=O)Oc2ccc(Cl)cc2)cc1` [compound 16, N-Boc 4-(aminomethyl)phenyl(4-chlorophenyl)carbonate], the “inhibition (total ubiquitin pool)” value [3] was “not an efficient inhibitor”.
With `NCc1ccc(O)cc1` [aminomethylphenol, 4-(aminomethyl)phenol] the “cytotoxicity after single dose, 72 h” value [8] was “not cytotoxic”.
In the case of `NCc1ccc(OC(=O)Nc2ccccc2)cc1` [Compound C7], the “stabilization of the HMW-Ub pool” value [2] is reported as “Neither the analogous carbamates (C7 and C8, FIG. 30 and FIG. 36), nor the analogous esters (C9 and C10) stabilized HMW-Ub”.
With `Cc1ccc(OC(=O)Oc2ccc(CN)cc2)cc1` [Compound C12, 4-(aminomethyl)phenyl(4-methylphenyl)carbonate] the “DUB inhibitory activity, SAR in words” value [2] was “had no effect on inhibitory activity”.
`COc1ccc(OC(=O)Oc2ccc(CN)cc2)cc1` [Compound C13, 4-(aminomethyl)phenyl(4-methoxyphenyl)carbonate] was tested, and the “DUB inhibitory activity, SAR in words” value [2] was “had no effect on inhibitory activity”.
In the case of `CC(C)CNCc1ccc(OC(=O)Oc2ccc3ccccc3c2)cc1.Cl` [compound 10], the “inhibition (total ubiquitin pool)” value [3] is reported as “have some potency”.
In the case of `CC(C)(C)OC(=O)NCc1ccc(NC(=S)Oc2ccccc2)cc1` [TCM23], the EC50 [7] is reported as > 50 µM.
With `CC(C)(C)OC(=O)NCc1ccc(OC(=O)Oc2ccccc2)cc1` [Compound C3] the “DUB inhibitory activity, SAR in words” value [2] was “activity was lost”.
`NCc1ccc(OC(=O)Oc2ccc(F)cc2)cc1` [Compound C11, 4-(aminomethyl)phenyl(4-fluorophenyl)carbonate] was tested, and the “DUB inhibitory activity, SAR in words” value [2] was “had no effect on inhibitory activity”.
With `NCc1ccc(OC(=O)Oc2ccccc2Cl)cc1` [Compound C16, 4-(aminomethyl)phenyl(2-chlorophenol)carbonate] the “DUB inhibitory activity, SAR in words” value [2] was “improved potency relative to C4”.
